Test results published in US10106797B2, “Methods for suppressing adipocyte differentiation” (SEOUL NATIONAL UNIVERSITY R&DB FOUNDATION, priority 2013, dated 2018).

Legend:
C/EBP-β [1] = assay: Quantitative RT-PCR of C/EBP-β mRNA in 3T3-L1 cells; assay type: cell-based, mouse
Method: (§1) HEK293 (human embryonic kidney) cells were obtained from the American Type Culture Collection (Manassas, Va.). 3T3-L1 and 3T3-F442A preadipocytes were kindly given by Dr. Jae-Woo Kim (Yonsei University, Seoul, Korea). Cells were cultured in DMEM supplemented with 10% fetal bovine serum (FBS). Differentiation of 3T3-L1 cells was induced with 1 μM dexamethasone, 500 μM 3-isobutyl-a-methylxanthine, and 5 μg/ml of insulin (DMI), which is designated DMI. From 2 to 8 days after DMI treatment, cells were maintained in DMEM containing 10% FBS and 1 μg/ml of insulin and the medium was changed every other day. Adipocyte differentiation of hADSCs was induced with DMI and 200 μM indomethacin in α-MEM supplemented with 10% FBS. Cells were incubated in 5% CO2 and 20% O2 at 37° C.
(§2) Total RNAs were isolated from cultured cells using TRIzol® (Invitrogen). The EasyScript™ cDNA Synthesis Kit (Applied Biological Materials Inc., Richmond, Canada) was used to synthesize cDNAs. The level of each cDNA was relatively quantified by being divided by the 18S rRNA level in the corresponding sample.

3T3-L1 cells = assay: Adipocyte differentiation of 3T3-L1 cells, Oil-red O staining; assay type: cell-based, mouse; conditions: for adipose differentiation: amount dependent
Method: as §1
Adipocytes were fixed with 3.7% of formalin and stained with 0.3% Oil-red-O solution (Sigma-Aldrich) dissolved in isopropanol. 0.5% Oil-red-O (Sigma-Aldrich) was dissolved in isopropanol. Oil-red-O stock solution and H2O were mixed at a ratio of 6:4 and filtered. Then 60% Oil-red-O stock solution was incubated with the cells for 1 h and washed with distilled water and scanned for image.

CD36 = assay: Quantitative RT-PCR of CD36 mRNA in 3T3-L1 cells; assay type: cell-based, mouse
Method: as §1, §2

PPAR-v [2] = assay: Quantitative RT-PCR of PPAR-v mRNA in 3T3-L1 cells; assay type: cell-based, mouse
Method: as §1, §2

PPAR-v [3] = assay: Western blotting of PPAR-v protein expression in 3T3-L1 cells; assay type: cell-based, mouse
Method: as §1
(§3) Proteins in cell lysates were electrophoresed on SDS-polyacrylamide gels and transferred to Immobilon-P membranes (Millipore, Billerica, Mass.). Membranes were preincubated with 5% skim milk in TTBS (Tris-buffered saline containing 0.1% Tween 20) for 30 min and incubated overnight with primary antibody diluted 1:500 to 1:3000 in the TTBS. The membranes were further incubated with a horseradish peroxidase conjugated secondary antibody for 1 h and visualized using Pierce ECL Plus western blotting substrate according to the manufacturer's instruction (Thermo Fisher Scientific, Waltham, Mass.).

FABP4 = assay: Quantitative RT-PCR of FABP4 mRNA in 3T3-L1 cells; assay type: cell-based, mouse
Method: as §1, §2

C/EBP-β [4] = assay: Western blotting of C/EBP-β protein expression in 3T3-L1 cells; assay type: cell-based, mouse; conditions: FIG. 1E
Method: as §1, §3

PPAR-v [5] = assay: Ubiquitination of PPAR-v, western blotting; assay type: cell-based; conditions: neddylation inhibited using siNEDD8; FIG. 3E
Method: as §3
To precipitate HA-tagged proteins, transfected cells were lysed in a buffer containing 5 mM EDTA, 50 mM Tris-Cl, 100 mM NaCl, 0.1% NP-40, and the protease inhibitor cocktail (Sigma-Aldrich). Cell lysates (1 mg proteins) were incubated with EZview™ anti-HA affinity beads sequentially incubated with a primary antibody (10 μg/mL) and protein A/G-Sepharose beads (GE Healthcare, Uppsala, Sweden) at 4° C. for 4 h. Pull down proteins were eluted in a 2×SDS denaturing buffer and subjected to Western blotting as described above. For HA-bead immunoprecipitation, 1 mg of protein was incubated with 10 ul of HA-bead at 4° C. for 4 h and washed. Then proteins were eluted in a 2×SDS denaturing buffer and electrophoresed in a SDS-PAGE gel and subjected to Western blotting as described above.

[6] = 3T3-L1 cells treated with 0.5 μM MLN4924 before the differentiation, 0, 2, 4, 6, 8 days, FIG. 2B
[7] = siNEDD8 knock down, PCR at 0, 2, 4, 6, and 8 days after start of differentiation, FIG. 1F
[8] = knock down after the cells were induced to differentiation, FIG. 1D

NS(=O)(=O)OC[C@@H]1C[C@@H](n2ccc3c(N[C@H]4CCc5ccccc54)ncnc32)C[C@@H]1O [MLN4924, reference compound]
C/EBP-β at the mRNA level (C/EBP-β [1]; [6]): decreased
differentiation of 3T3L1 cells into adipocytes (3T3-L1 cells; MLN4924 0.1 and 0.5 μM, before and after differentiation was induced, Oil-red O, FIG. 2A): suppressed
CD36 at the mRNA level (CD36; [6]): decreased
PPAR-v at the mRNA level (PPAR-v [2]; [6]): decreased
expression of PPAR-v protein (PPAR-v [3]; 3T3-L1 cells treated with MLN4924 after the differentiation was induced, FIG. 2A): suppresses
FABP4 at the mRNA level (FABP4; [6]): decreased

COc1ccc(C2=NC(c3ccc(Cl)cc3)C(c3ccc(Cl)cc3)N2C(=O)N2CCNC(=O)C2)c(OC(C)C)c1 (stereo not drawn) [nutlin-3, 4-[4,5-Bis(4-chlorophenyl)-2-(2-isopropoxy-4-methoxy-phenyl)-4,5-dihydro-imidazole-1-carbonyl]-piperazin-2-one, reference compound]
adipose differentiation (3T3-L1 cells; nutlin-3 10 and 20 μM, before and after differentiation was induced, FIG. 5D): suppressed

siMDM2: MDM2 siRNA used in 3T3-L1; probably the mouse one, SEQ ID NO: 8, 5′-GCAAUGAUCUACAGAAAUUUAGUGG-3′ (other strand not given here)
adipose differentiation (3T3-L1 cells; 3T3-L1 transfected with siMDM2 10, 20 or 50 nM, differentiation induced after 2 days, FIG. 5C): suppressed

siNEDD8: siRNA against NEDD8; Table 1 siNEDD8 is human, SEQ ID NO: 1; text does not say which sequence was used in 3T3-L1 (CAGACAAGGUGGAGCGAAUCAAGGA; other strand not given here)
mRNA expression level of C/EBP-β (C/EBP-β [1]; [7]): decreased
adipogenesis (3T3-L1 cells; [8]): suppressed
mRNA expression level of CD36 (CD36; [7]): decreased
expression of C/EBP-β (C/EBP-β [4]; 0, 2, 4, 8, 16, 24 h after the initiation of differentiation): decreased
expression of C/EBP-β (C/EBP-β [4]; knock down before induction, 0, 2, 4, 6 and 8 days during differentiation, compared to control, time dependent): decreased
mRNA expression level of PPAR-v (PPAR-v [2]; [7]): decreased
expression of PPAR-v (PPAR-v [3]; [8]): suppressed
expression of PPAR-v (PPAR-v [3]; knock down before induction, 0, 2, 4, 6 and 8 days during differentiation, compared to control, time dependent, FIG. 1E): decreased
ubiquitination of PPAR-v (PPAR-v [5]): increased
mRNA expression level of FABP4 (FABP4; [7]): decreased
